Read-outs that look alike come from different tables or passages of the source. Values belong to the compound of their own block, whether it stands above or below them.
Assays:
[1] = test system: IL-1β release; test: IL-1β release assay (PMA-differentiated THP-1 cells, LPS + nigericin, cleaved IL-1β by JESS); assay type: cell-based; conditions: Homo sapiens
Description: (§1) Approximately 1.5 million THP-1 cells were plated in each well of a 6-well TC plate and incubated with 40 nM PMA in RPMI (10% FBS, 1% Penstrep) for 24 hours. The media was then removed and cells were rested in RPMI (10% FBS, 1% Penstrep) for 24 hours after which time the media was removed and cells were pre-treated for 2 hours with various concentrations of compounds of interest (typically serial 3-fold dilution in RPMI +5% FBS, concentrations ranging from 1 μM to 0.5 nM) in RPMI (5% FBS). The media was again removed and cells were incubated with 250 ng/mL LPS and compounds of interest (concentrations as above) in RMPI (5% FBS) for 2 hours. The media was removed for a last time and cells were incubated with 20 μM nigericin and compounds of interest (concentrations as above) in Opti-MEM for 30 minutes. Cell media was then collected and the amount of cleaved IL-1β was determined using a JESS instrument (Protein Simple) and standard protocols. Cleaved 1-PD antibody was obtained from Cell Signaling (catalogue #83186S) and was used at 1:20 dilution in antibody diluent 2. Protein Simple 1× anti-Rabbit HRP secondary antibody was used along with Protein Simple luminol and peroxide for chemiluminescent detection. Primary antibody incubation time was increased from 30 minutes to 60 minutes.
as §1, with “RPMI+5%” for “RPMI +5%”, “Il-1β” for “1-PD”

[2] = biological target: T1, full-length recombinant human NEK7 (Homo sapiens, UniProt Q8TDX7); test: NEK7 enzymatic assay ([33P]-ATP, casein substrate); assay type: biochemical
T1 construct: full-length recombinant human NEK7; GST (N); purchased SignalChem N09-10G; host or cells: Sf9 insect cells (baculovirus)
In short: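 Serially diluted compounds (10 μM down to 0.5 nM, 3-fold) were preincubated 20 min at room temperature with N-terminal GST-NEK7 from Sf9 cells and casein in pH 7.5 Hepes/MgCl2/EGTA/Brij35/DTT buffer containing 1% DMSO. [33P]-ATP then started a 2 h room-temperature reaction, stopped by spotting onto P81 paper. IC50 came from percent activity remaining versus vehicle.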

[3] = THP-1, comparative compounds of Structure (II), read-out: IL-1β release IC50
[4] = comparative compounds of Structure (II)
[5] = Table 2e, THP-1 cells, LPS + nigericin, read-out: IL-1β release IC50
[6] = Table 2e, recombinant human NEK7, casein substrate
[7] = 48 h, Table 2d, THP-1 cells, LPS + nigericin, read-out: IL-1β release IC50
[8] = Table 2d, recombinant human NEK7, casein substrate
[9] = Table 2a, THP-1 cells, LPS + nigericin, read-out: II-1β release IC50
[10] = Table 2a, recombinant human NEK7, casein substrate

T1 sequence (Q8TDX7 whole entry): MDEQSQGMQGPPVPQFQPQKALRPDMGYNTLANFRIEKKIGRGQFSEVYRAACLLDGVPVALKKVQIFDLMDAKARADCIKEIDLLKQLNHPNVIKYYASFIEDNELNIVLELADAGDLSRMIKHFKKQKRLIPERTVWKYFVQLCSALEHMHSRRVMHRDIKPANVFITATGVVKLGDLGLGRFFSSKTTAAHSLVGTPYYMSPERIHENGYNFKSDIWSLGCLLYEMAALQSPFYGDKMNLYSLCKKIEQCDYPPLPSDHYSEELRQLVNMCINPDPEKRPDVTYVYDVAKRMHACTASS

IC50 [1, 3]: > 1000 nM | IC50 [2, 4]: < 150 nM
Structure (SMILES): Nc1ncnc2c1c(-c1ccc3c(c1F)CCN3C(=O)Cc1cc(C(F)(F)F)ccc1F)nn2C1COC1 [II-12, 1-(5-(4-amino-1-(oxetan-3-yl)-1H-pyrazolo[3,4-d]pyrimidin-3-yl)-4-fluoroindolin-1-yl)-2-(2-fluoro-5-(trifluoromethyl)phenyl)ethan-1-one]

IC50 [1, 3]: > 1000 nM | IC50 [2, 4]: < 150 nM
Structure (SMILES): Nc1ncnc2c1c(-c1ccc3c(c1F)CCN3C(=O)Cc1cc(C(F)(F)F)ccc1F)cn2C1CC1 [II-17, 1-(5-(4-amino-7-cyclopropyl-7H-pyrrolo[2,3-d]pyrimidin-5-yl)-4-fluoroindolin-1-yl)-2-(2-fluoro-5-(trifluoromethyl)phenyl)ethan-1-one]

IC50 [1, 5]: < 150 nM | IC50 [2, 6]: 301 to 500 nM
Structure (SMILES): Cc1[nH]c2nccc(Oc3ccc(NC(=O)Nc4ccc(CN5CCN(C)CC5)c(C(F)(F)F)c4)c(F)c3)c2c1Cl [Ie-27, 1-(4-((3-chloro-2-methyl-1H-pyrrolo[2,3-b]pyridin-4-yl)oxy)-2-fluorophenyl)-3-(4-((4-methylpiperazin-1-yl)methyl)-3-(trifluoromethyl)phenyl)urea]

IC50 [1, 7]: < 150 nM | IC50 [2, 8]: < 150 nM
Structure (SMILES): CN1CCN(Cc2ccc(NC(=O)Nc3ccc(-c4nn(C5CC5)c5ccnc(N)c45)cc3F)cc2C(F)(F)F)CC1 [Id-30, 1-(4-(4-amino-1-cyclopropyl-1H-pyrazolo[4,3-c]pyridin-3-yl)-2-fluorophenyl)-3-(4-((4-methylpiperazin-1-yl)methyl)-3-(trifluoromethyl)phenyl)urea]

IC50 ([1]; Table 2b, THP-1 cells, LPS + nigericin, read-out: Il-1β release IC50): < 150 nM | IC50 ([2]; Table 2b, recombinant human NEK7, casein substrate): 501 to 1500 nM
Structure (SMILES): CC(C)(C)c1cc(NC(=O)Nc2ccc(Oc3ccnc4[nH]cc(Cl)c34)c(F)c2)n(-c2ccccc2)n1 [Ib-12, 1-(3-(tert-butyl)-1-phenyl-1H-pyrazol-5-yl)-3-(4-((3-chloro-1H-pyrrolo[2,3-b]pyridin-4-yl)oxy)-3-fluorophenyl)urea]

IC50 [1, 7]: < 150 nM | IC50 [2, 8]: < 150 nM
Structure (SMILES): CCN1CCN(Cc2ccc(NC(=O)Nc3ccc(-c4nn(C5CC5)c5ncnc(N)c45)cc3F)cc2C(F)(F)F)CC1 [Id-49]

IC50 [1, 7]: > 1000 nM | IC50 [2, 8]: 151 to 300 nM
Structure (SMILES): CN1CCN(C(=O)c2ccc(NC(=O)Nc3ccc(-c4nn(C5CC5)c5ncnc(N)c45)cc3F)cc2C(F)(F)F)CC1 [Id-48]

IC50 [1, 9]: < 150 nM | IC50 [2, 10]: < 150 nM
Structure (SMILES): Nc1ncnc2c1c(-c1ccc(NC(=O)Nc3cc(C4(C(F)(F)F)CC4)on3)c(F)c1)nn2C1CC1 [Ia-25, 1-(4-(4-amino-1-cyclopropyl-1H-pyrazolo[3,4-d]pyrimidin-3-yl)-2-fluorophenyl)-3-(5-(1-(trifluoromethyl)cyclopropyl)isoxazol-3-yl)urea]

IC50 [1, 9]: < 150 nM | IC50 [2, 10]: < 150 nM
Structure (SMILES): CC(C)(C)c1cc(NC(=O)Nc2ccc(-c3nn(C4CC4)c4ccnc(N)c34)cc2F)on1 [Ia-30, 1-(4-(4-amino-1-cyclopropyl-1H-pyrazolo[4,3-c]pyridin-3-yl)-2-fluorophenyl)-3-(3-(tert-butyl)isoxazol-5-yl)urea]

IC50 [1, 7]: 301 to 500 nM | IC50 [2, 8]: 501 to 1500 nM
Structure (SMILES): Nc1ncnc2c1c(-c1ccc(NC(=O)Nc3ccc(CN4CCOCC4)c(C(F)(F)F)c3)c(F)c1)cn2C1CC1 [Id-31, 1-(4-(4-amino-7-cyclopropyl-7H-pyrrolo[2,3-d]pyrimidin-5-yl)-2-fluorophenyl)-3-(4-(morpholinomethyl)-3-(trifluoromethyl)phenyl)urea]

IC50 [1, 9]: < 150 nM | IC50 [2, 10]: < 150 nM
Structure (SMILES): Nc1ncnc2c1c(-c1ccc(NC(=O)Nc3cc(C4(C(F)(F)F)CC4)no3)c(F)c1)nn2C1CC1 [Ia-21]

IC50 [1, 3]: > 1000 nM | IC50 [2, 4]: < 150 nM
Structure (SMILES): CC(C)n1nc(-c2ccc3c(c2F)CCN3C(=O)Cc2cc(C(F)(F)F)ccc2F)c2c(N)ncnc21 [II-11, 1-(5-(4-amino-1-isopropyl-1H-pyrazolo[3,4-d]pyrimidin-3-yl)-4-fluoroindolin-l-yl)-2-(2-fluoro-5-(trifluoromethyl)phenyl)ethan-1-one]

IC50 [1, 5]: < 150 nM | IC50 [2, 6]: 501 to 1500 nM
Structure (SMILES): CCN1CCN(Cc2ccc(NC(=O)Nc3ccc(Oc4ccnc5[nH]cc(Cl)c45)cc3F)cc2C(F)(F)F)CC1 [Ie-9, 1-(4-((3-chloro-1H-pyrrolo[2,3-b]pyridin-4-yl)oxy)-2-fluorophenyl)-3-(4-((4-ethylpiperazin-1-yl)methyl)-3-(trifluoromethyl)phenyl)urea]

Reference: patent publication US20230210853A1 (Halia Therapeutics, Inc., priority 2020, published 2023)
